Laboratory results from patent US12576059B2, “Methods and compositions for treatment of inflammatory disease” (priority 2021, dated 2026).
Entries after “also recorded” stand apart in the source; their conditions may differ.

Legend:
[1] = tested on: LPS-induced acute lung injury; assay: Example 5: response to intranasal LPS in mice fed AA diets (ALI model); format: in vivo, BALB/c and C57BL/6 mice; details: for LPS-induced perivascular edema as measured by alveolar wall thickness: 6 weeks diet, versus H-AA
Method: Mouse diet was from Research Diets (New Brunswick, NJ) based on fat-free AIN-93G. Fat was added at 11.3% by weight total fat and 0.25% either normal H-AA or D-AA respectively (Table 5).
Male and Female BALB/c and C57BL/6 mice were provided with standard environmental conditions i.e., 22±1° C., 55±5% humidity and 12 h light/dark cycle with free food and water access. At the age of six weeks, animals were split into 8 groups (n=160 total, 20 of each gender) and were continuously fed ad libitum on the diet containing either H-AA or D-AA for 2, 4, 6 or 8 weeks at the daily rate of ca. 5 g of diet per mouse for the duration of the study. The other two groups of animals (n=40, 20 of each gender) received neither PUFA-enriched diets nor LPS served as controls. The body weight and food intake were measured once a week. After completing the appropriate diet course, half of the mice in each group (10 females and 10 males) (i) underwent the procedure of bronchoalveolar lavage (BAL) to accomplish cytological smears, (ii) were subjected to tissue harvesting and collection of colon contents (after humane euthanasia with lethal dose of sodium thiopental, 100 mg/kg intravenously). On the ninth week of this diet course, the other half of the group was administered 1 mg/kg of intranasal (IN) LPS from Escherichia coli O111:B4 (Sigma Aldrich) 24 hours prior to BAL and subsequent euthanasia. 40 D-AA fed animals (20 males, 20 females) were switched to the H-AA diet for washout experiments.
Cell differential counts were performed on smear slides from resuspended cell pellets of BAL, using commercially available May-Grünwald-Giemsa staining kits. All slides were evaluated in a light microscope (Optec BK5000) at ×200 magnification. These cell counts such as lymphocytes, neutrophils, plasmacytes and macrophages were obtained from 10 fields of each slide.
Lung, stomach and colon samples were fixed with 4% formaldehyde (freshly prepared from paraformaldehyde), paraffin embedded and cut into 2-4 μm sections. For routine histology, all fixed tissue sections were stained with hematoxylin-eosin (H&E). All slides were evaluated at 10 fields each using a Genetic Pro Bino light microscope (A) and photographed with a digital camera (Delta Optical). Stomach and colon tissue sections were analyzed for signs of active and chronic inflammation, formation of lymph follicles, and hyperplasia of epithelial cells. The severity of lung injury was scored according to lung pathological changes, including interalveolar and perivascular hemorrhages, peri-vascular and peribronchial infiltration, perivascular edema, thickness of alveolar wall, alveolar space value, and emphysematous transformations. Lung tissue samples were additionally stained with commercially available Martius Scarlet Blue (MSB) stain kit (Avantik, USA) for fibrin visualization. The presence of homogeneous fibrin masses of yellow, pink or red color in the lung blood vessels were interpreted as thrombotic masses.
We challenged mice fed AA-diets for 6 weeks using LPS treatment. […] Perivascular edema, signs of thrombosis, alveolar wall thickening, irregular distribution of air spaces, and focal areas of alveolar hemorrhage were also observed. We preferred intranasal administration to the more extreme intratracheal route that induces IL-1β which in turn amplifies inflammation making it difficult to distinguish between the early and late consequences of the LPS challenge. Indeed, 24 hours after intranasal administration of LPS at a dose of 1 mg/kg, there was no significant increase in the IL-1B content in BAL fluid or colon homogenates compared to animals not treated with LPS regardless of type or duration of the diets. Intranasal LPS 24 hours post administration increased neutrophils in BAL fluid in all treated groups regardless of gender or form of AA diets.

[2] = tested on: LPS induced acute lung inflammation; assay: Example 2: LPS induced inflammation, H-AA versus D-AA, male and female mice; format: in vivo; details: for Interalveolar space / Interalveolar surface area: 6-week course, then single intranasal LPS; for inflammation in the lungs (in words): male and female mice, after LPS
Method: LPS administration was conducted as per Example 1 above except that four groups of mice were used. The first two groups (1 and 2) were control mice (male and female). The next two groups (3 and 4) of mice received a 6-week course of H-AA (male and female). Finally, the last two groups (5 and 6) of mice received a 6-week course of D6-AA (second group). Groups 3, 4, 5 and 6 then received a single intranasal administration of LPS to induce acute lung inflammation. The degree of the inflammatory response was determined per Example 1. Next, the height and distance of the interalveolar septa was determined to provide for the surface area of the inflammation.

[3] = tested on: LPS induced acute lung inflammation; assay: Example 1a: mouse model of lung inflammation (FIGS. 3-6, Table 4); format: in vivo, mice; details: for Alveolar lumen area (25%; 75%) / Partition thickness Me (25%; 75%): + LPS, median; for protective / therapeutic effect compared to other deuterated PUFAs: preliminary data (not shown)
Method: FIGS. 3-6 Groups of female (f) and male (m) mice received a 6-week course of dietary (H) AA or a 6-week course of deuterated arachidonic acid (D6-ARA, 15 mg/day) followed by single intranasal administration of LPS.
LPS treatment promotes inflammation through various mechanisms including secretion of pro-inflammatory cytokines, eicosanoids and induction of ROS. Following induction by the intranasal administration of LPS, an acute lung inflammation quickly follows. […] Such a pronounced inflammatory infiltration of the interalveolar septa contributed to their destruction and more frequent formation of emphysema foci in this group. […] (See FIGS. 3-6.)
The degree of alveolar lumen area changes in both groups of animals depended on gender. […]

[4] = 6 or 8 weeks diet, compared to H-AA

## [2H]C([2H])(/C=C\CCCCC)/C=C\C([2H])([2H])/C=C\C([2H])([2H])/C=C\CCCC(=O)O [D-AA, 7,7,10,10,13,13-D6-arachidonic acid]
[1]; 6-week diet, then single intranasal LPS
  LPS-induced interalveolar septa / wall thickening (in words): greater protective action
[1]; [4]
  alveolar spaces and thickness of interalveolar walls: improved
  endotoxin-induced peribronchial infiltration: significantly decreased
[1]; dietary consumption prior to LPS exposure
  LPS-induced lung tissue damage, inflammation and emphysema (in words): substantially mitigated; also recorded: substantially reduced
[1]; female mice
  LPS-induced perivascular edema as measured by alveolar wall thickness: almost negligible
[1]; male mice
  LPS-induced perivascular edema as measured by alveolar wall thickness: significantly milder effect
[1]; regardless of gender and LPS treatment
  inflammatory cell types in BAL, H-AA versus D-AA: No statistically significant differences
[2]; female mice
  Interalveolar space: ~3.5 μm
  Interalveolar surface area: ~90 μm^2
[2]
  inflammation in the lungs (in words): statistically significant reduction in inflammation
[2]; listed as D-6 AA
  inflammation in the lungs (in words): less inflammation in the lungs
[2]; male mice
  Interalveolar space: ~5.0 μm
  Interalveolar surface area: ~190 μm^2
[3]; 6-week course, 15 mg/day, then single intranasal LPS
  alveolar lumen area and thickness versus controls: consistent with controls
[3]; females
  Alveolar lumen area (25%; 75%): 57.4 μm^2
  Partition thickness Me (25%; 75%): 3.6 µm
[3]; males
  Alveolar lumen area (25%; 75%): 112.1 μm^2
  Partition thickness Me (25%; 75%): 5.55 µm
[3]
  protective / therapeutic effect compared to other deuterated PUFAs: best protective effect
[3]; listed as D6-AA
  protective / therapeutic effect compared to other deuterated PUFAs: better therapeutic effect
